Structures can show the parent of a compound that is named as a salt. Where two headings read alike, the source gives them in different places.
Biological target: T1, AhR (Homo sapiens, UniProt P35869)
T1 construct: host or cells: HepG2
T1 sequence (P35869 11-848): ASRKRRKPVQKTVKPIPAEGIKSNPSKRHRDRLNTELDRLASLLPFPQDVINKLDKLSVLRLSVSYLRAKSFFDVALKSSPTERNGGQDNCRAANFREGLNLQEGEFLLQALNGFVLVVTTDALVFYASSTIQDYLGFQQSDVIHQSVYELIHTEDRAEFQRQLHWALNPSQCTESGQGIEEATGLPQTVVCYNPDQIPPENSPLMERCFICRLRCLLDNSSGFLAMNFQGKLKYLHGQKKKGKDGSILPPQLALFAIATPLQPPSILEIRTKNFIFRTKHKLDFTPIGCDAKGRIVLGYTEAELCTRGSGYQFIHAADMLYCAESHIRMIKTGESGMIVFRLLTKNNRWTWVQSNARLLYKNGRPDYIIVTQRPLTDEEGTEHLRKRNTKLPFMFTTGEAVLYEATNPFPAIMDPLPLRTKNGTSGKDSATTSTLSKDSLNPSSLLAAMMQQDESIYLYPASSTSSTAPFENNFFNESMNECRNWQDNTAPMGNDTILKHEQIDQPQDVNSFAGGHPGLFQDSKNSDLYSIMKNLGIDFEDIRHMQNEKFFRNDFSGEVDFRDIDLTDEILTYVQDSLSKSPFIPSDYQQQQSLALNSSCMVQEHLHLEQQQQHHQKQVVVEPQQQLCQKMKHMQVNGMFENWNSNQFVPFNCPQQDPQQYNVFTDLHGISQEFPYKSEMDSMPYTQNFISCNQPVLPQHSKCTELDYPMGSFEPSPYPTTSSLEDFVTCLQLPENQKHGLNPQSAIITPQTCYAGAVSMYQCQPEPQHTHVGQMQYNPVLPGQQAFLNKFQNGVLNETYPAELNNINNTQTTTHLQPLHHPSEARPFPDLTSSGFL
Experiment: In vitro assay 1: XRE-luciferase reporter assay, antagonism in human cell line (HepG2)
Type: cell-based
Settings: HepG2 XRE-luciferase, 6 hours, read-out: Assay 1: AhR-Luc Human Antagonism (IC50)
Excerpt: In Vitro XRE-Luciferase Reporter Assay (In Vitro Assay 1, 2, 3)
AhR activation leads the induction of target gene expression such as CYP1A1 and CYP1B1 by AhR binding to AhR-responsive DNA elements also known as xenobiotics responsive elements (XRE). The assay for measuring AhR activity herein is the luciferase assay using cell lines transfected with luciferase reporter plasmid containing XREs at the upstream of the reporter gene. Cells transfected with XRE-luciferase reporter (XRE-Luc) plasmid drive luciferase activity reflecting activation and inhibition of AhR in the cells. In addition to transfection with XRE-reporter vector, cells were co-transfected with Nano-luciferase reporter gene construct (Nano-Luc) containing constitutively active promoter as internal control. Kynurenine (an endogenous AhR agonist) was used to stimulate cells to test antagonistic properties of the compounds. The half-maximal inhibitory concentration (IC50) or half-maximal effective concentration (EC50) value was calculated using nonlinear regression (four parameters) with Prism8.0 software (GraphPad).
In Vitro Assay 1: Antagonism in Human Cell Line
HepG2 (human hepatoma cell line) cell line with a XRE-luciferase reporter either transiently or stably (Invivogen) were plated in complete medium and incubated at 37° C. in a CO2 incubator. After 24 hours, cells were treated with kynurenine (50* or 200 μM) alone (negative control) or with test compounds for 6 hours. Luciferase activity was measured with a commercial kit such as the Promega Luciferase kit or other reagents for measuring luciferase activity. Relative luciferase activity (Firefly/Nano-Luc) was used to calculate IC50 values. The relative luciferase activity was further normalized with kynurenine alone group as the maximum control and the vehicle group as the minimum control. (IC50 values are grouped as A, B, C and D, whereby A: IC50<0.01 μM; B: 0.01<IC50<0.1 μM; C: 0.1<IC50<1.0 μM; D: IC50>1.0 μM)

[1] = cells treated with kynurenine 50 μM (*)
[2] = cells treated with kynurenine 200 μM (no *)

Row | Compound | IC50 [1] [nM] | IC50 [2] [nM]
1 | CCC(CO)n1cnc2c(-c3cccnc3)nc(-c3ccc(C(F)(F)F)cc3)cc2c1=O (stereo not drawn) [Example 53, 3-(1-hydroxybutan-2-yl)-8-(pyridin-3-yl)-6-(4-(trifluoromethyl)phenyl)pyrido[3,4-d]pyrimidin-4(3H)-one] | > 1000 | 
2 | CN1CCN(c2ccc(-c3cc4c(=O)n(CC(O)CO)cnc4c(-c4cccnc4)n3)cc2)CC1 (stereo not drawn) [Example 68, 3-(2,3-dihydroxypropyl)-6-(4-(4-methylpiperazin-1-yl)phenyl)-8-(pyridin-3-yl)pyrido[3,4-d]pyrimidin-4(3H)-one] |  | > 1000
3 | O=c1c2cc(-c3ccc(C(F)(F)F)nc3)nc(-c3cccnc3)c2ncn1[C@@H]1CC[C@H](O)C1 [Example 65, 3-((1R,3S)-3-hydroxycyclopentyl)-8-(pyridin-3-yl)-6-(6-(trifluoromethyl)pyridin-3-yl)pyrido[3,4-d]pyrimidin-4(3H)-one] |  | < 10
4 | O=c1c2cc(-c3ccc(Cl)cc3)nc(-c3cccnc3)c2ncn1[C@H]1CC[C@@H](O)C1 [Example 32, 6-(4-chlorophenyl)-3-((1S,3R)-3-hydroxycyclopentyl)-8-(pyridin-3-yl)pyrido[3,4-d]pyrimidin-4(3H)-one] |  | < 10
5 | CC(CO)N1CNc2c(cc(-c3ccc(Cl)cc3)nc2-c2cccnc2)C1=O (stereo not drawn) [Example 60] |  | 10 to 100
6 | O=c1c2cc(-c3ccc(C(F)(F)F)cc3)nc(-c3cccnc3)c2ncn1[C@H]1CCCC[C@H]1O [Example 15, 3-((1S,2R)-2-hydroxycyclohexyl)-8-(pyridin-3-yl)-6-(4-(trifluoromethyl)phenyl)pyrido[3,4-d]pyrimidin-4(3H)-one] |  | > 1000
7 | CC(C(=O)O)n1cnc2c(-c3cccnc3)nc(-c3ccc(C(F)(F)F)cc3)cc2c1=O (stereo not drawn) [Example 84, 2-(4-oxo-8-(pyridin-3-yl)-6-(4-(trifluoromethyl)phenyl)pyrido[3,4-d]pyrimidin-3(4H)-yl)propanoic acid, 2,2,2-trifluoroacetic acid salt] |  | 100 to 1000
8 | Cn1cc(-c2nc(-c3ccc(C(F)(F)F)cc3)cc3c(=O)n(-c4cccc(O)c4)cnc23)cn1 [Example 27, 3-(3-hydroxyphenyl)-8-(1-methyl-1H-pyrazol-4-yl)-6-(4-(trifluoromethyl)phenyl)pyrido[3,4-d]pyrimidin-4(3H)-one] |  | < 10
9 | CC(CO)n1cnc2c(-c3cccnc3)nc(-c3ccc(-c4ccc(Cl)cc4)cc3)cc2c1=O (stereo not drawn) [Example 74, 6-(4′-chloro-[1,1′-biphenyl]-4-yl)-3-(1-hydroxypropan-2-yl)-8-(pyridin-3-yl)pyrido[3,4-d]pyrimidin-4(3H)-one] |  | < 10
10 | CC(C(=O)O)n1cnc2c(-c3cccnc3)nc(-c3ccc(Cl)cc3)cc2c1=O (stereo not drawn) [Example 83, 2-(6-(4-chlorophenyl)-4-oxo-8-(pyridin-3-yl)pyrido[3,4-d]pyrimidin-3(4H)-yl)propanoic acid, 2,2,2-trifluoroacetic acid salt] |  | 100 to 1000
11 | O=c1c2cc(-c3ccc(C(F)(F)F)cc3)nc(-c3cccnc3)c2ncn1C[C@@H](O)CO [Example 81, (R)-3-(2,3-dihydroxypropyl)-8-(pyridin-3-yl)-6-(4-(trifluoromethyl)phenyl)pyrido[3,4-d]pyrimidin-4(3H)-one] |  | < 10
12 | CC(CO)n1cnc2c(-c3ccc(C(F)(F)F)cc3)nc(-c3ccc(C(F)(F)F)cc3)cc2c1=O (stereo not drawn) [Example 6, 3-(1-hydroxypropan-2-yl)-6,8-bis(4-(trifluoromethyl)phenyl)pyrido[3,4-d]pyrimidin-4(3H)-one] | 100 to 1000 | 
13 | O=c1c2cc(-c3ccc(N4CCOCC4)cc3)nc(-c3cccnc3)c2ncn1C(CO)CO [Example 80, 3-(1,3-dihydroxypropan-2-yl)-6-(4-morpholinophenyl)-8-(pyridin-3-yl)pyrido[3,4-d]pyrimidin-4(3H)-one] |  | < 10
14 | Cn1cc(-c2nc(-c3ccc(Cl)cc3)cc3c(=O)n(C4CCCC(O)C4)cnc23)cn1 (stereo not drawn) [Example 64, 6-(4-chlorophenyl)-3-(3-hydroxycyclohexyl)-8-(1-methyl-1H-pyrazol-4-yl)pyrido[3,4-d]pyrimidin-4(3H)-one] |  | 10 to 100
15 | CC(CO)n1cnc2c(-c3ccc(C(F)(F)F)cc3)nc(-c3cnn(C)c3)cc2c1=O (stereo not drawn) [Example 4, 3-(1-hydroxypropan-2-yl)-6-(1-methyl-1H-pyrazol-4-yl)-8-(4-(trifluoromethyl)phenyl)pyrido[3,4-d]pyrimidin-4(3H)-one] | > 1000 | 
16 | CC(=O)OC(C)(C)Cn1cnc2c(-c3cccnc3)nc(-c3ccc(C(F)(F)F)cc3)cc2c1=O [Example 37, 2-methyl-1-(4-oxo-8-(pyridin-3-yl)-6-(4-(trifluoromethyl)phenyl)pyrido[3,4-d]pyrimidin-3(4H)-yl)propan-2-yl acetate] |  | < 10
17 | CC(=O)NCC(C)n1cnc2c(-c3cccnc3)nc(-c3ccc(C(F)(F)F)cc3)cc2c1=O (stereo not drawn) [Example 86, N-(2-(4-oxo-8-(pyridin-3-yl)-6-(4-(trifluoromethyl)phenyl)pyrido[3,4-d]pyrimidin-3(4H)-yl)propyl)acetamide] |  | 10 to 100
18 | O=c1c2cc(-c3ccc(C(F)(F)F)cc3)nc(-c3cccnc3)c2ncn1CC(O)C(F)(F)F (stereo not drawn) [Example 25, 8-(pyridin-3-yl)-3-(3,3,3-trifluoro-2-hydroxypropyl)-6-(4-(trifluoromethyl)phenyl)pyrido[3,4-d]pyrimidin-4(3H)-one] |  | > 1000
19 | Cn1cc(-c2nc(-c3ccc(Cl)cc3)cc3c(=O)n(-c4cccc(O)c4)cnc23)cn1 [Example 26, 6-(4-chlorophenyl)-3-(3-hydroxyphenyl)-8-(1-methyl-1H-pyrazol-4-yl)pyrido[3,4-d]pyrimidin-4(3H)-one] |  | 10 to 100
20 | CC(O)Cn1cnc2c(-c3cnn(C)c3)nc(-c3ccc(Cl)cc3)cc2c1=O (stereo not drawn) [Example 13, 6-(4-chlorophenyl)-3-(2-hydroxypropyl)-8-(1-methyl-1H-pyrazol-4-yl)pyrido[3,4-d]pyrimidin-4(3H)-one] | < 10 | 
21 | O=c1c2cc(-c3ccc(Cl)cc3)nc(-c3cccnc3)c2ncn1C1CCC(O)CC1 (stereo not drawn) [Example 58, 6-(4-chlorophenyl)-3-((1s,4s)-4-hydroxycyclohexyl)-8-(pyridin-3-yl)pyrido[3,4-d]pyrimidin-4(3H)-one] |  | < 10
22 | Cn1cc(-c2nc(-c3ccc(Cl)cc3)cc3c(=O)n(CC(O)C(F)(F)F)cnc23)cn1 (stereo not drawn) [Example 23, 6-(4-chlorophenyl)-8-(1-methyl-1H-pyrazol-4-yl)-3-(3,3,3-trifluoro-2-hydroxypropyl)pyrido[3,4-d]pyrimidin-4(3H)-one] |  | < 10
23 | O=c1c2cc(-c3ccc(Cl)cc3)nc(-c3cccnc3)c2ncn1[C@H]1CCCC[C@H]1O [Example 21] |  | > 1000
24 | O=c1c2cc(-c3ccc(C(F)(F)F)cc3)nc(-c3cccnc3)c2ncn1-c1cccc(O)c1 [Example 62, 3-(3-hydroxyphenyl)-8-(pyridin-3-yl)-6-(4-(trifluoromethyl)phenyl)pyrido[3,4-d]pyrimidin-4(3H)-one] |  | < 10

— patent publication US20230147257A1 (DONG-A ST CO., LTD., priority 2020, published 2023)
